Measured values published in US20260325533A1, “CDK INHIBITOR COMPOUNDS” (ALEKSIA THERAPEUTICS, INC., priority 2023, published 2026).
Read-outs that look alike come from different tables or passages of the source.

Experiments:
Type in all cases: biochemical
CDK1/CCNB1 = CDK1/CCNB1 (Homo sapiens, UniProt P06493); test: CDK1 homogeneous time-resolved fluorescence (HTRF) kinase assay; conditions: CDK1/CCNB
Outline: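 CDK1/CCNB1 0.5 nM + cpd, 20 min 23 °C; add 1 mM ATP, 50 nM ULight-4E-BP1 peptide, 60 min 23 °C; stop 10 mM EDTA; 2 nM Eu-Ab, 60 min; HTRF 665 nm. 11-pt half-log, top 10 μM typical; IC50.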

CDK4/CCND3 = CDK4/CCND3 (Homo sapiens, UniProt P11802); test: CDK4 homogeneous time-resolved fluorescence (HTRF) kinase assay; conditions: CDK4/CCND
Chain of CDK4/CCND3 (P11802 whole entry): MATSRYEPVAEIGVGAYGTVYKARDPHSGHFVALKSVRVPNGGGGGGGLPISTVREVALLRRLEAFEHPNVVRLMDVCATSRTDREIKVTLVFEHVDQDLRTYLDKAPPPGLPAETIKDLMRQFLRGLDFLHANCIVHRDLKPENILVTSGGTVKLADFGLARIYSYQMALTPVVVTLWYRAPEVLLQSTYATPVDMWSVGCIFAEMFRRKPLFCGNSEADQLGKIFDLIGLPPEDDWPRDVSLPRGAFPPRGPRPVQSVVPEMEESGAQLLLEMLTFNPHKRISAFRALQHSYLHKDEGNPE
Chain of CDK4/CCND3 (P30281 whole entry partner): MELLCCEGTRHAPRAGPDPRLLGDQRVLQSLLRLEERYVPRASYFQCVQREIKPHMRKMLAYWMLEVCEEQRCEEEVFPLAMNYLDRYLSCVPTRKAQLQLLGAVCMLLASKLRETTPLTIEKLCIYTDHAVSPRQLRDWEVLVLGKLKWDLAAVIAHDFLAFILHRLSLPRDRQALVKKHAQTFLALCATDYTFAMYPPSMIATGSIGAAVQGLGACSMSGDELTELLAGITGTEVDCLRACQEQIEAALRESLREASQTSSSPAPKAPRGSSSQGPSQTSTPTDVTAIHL
Outline: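 IC50 values were derived from 11-point half-log dilutions, usually starting at 10 μM. Compound was first held for 20 min at 23 °C with 1.5 nM CDK4/CCND3. 1 mM ATP and 50 nM ULight-eIF4E-BP1 (Thr37/46) substrate were then added for 60 min, and the TR-FRET 665 nm signal was measured after EDTA stop and Eu-anti-phospho-4E-BP1 detection.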

CDK2/CCNE1 = CDK2/CCNE1 (Homo sapiens, UniProt P24941); test: CDK2 homogeneous time-resolved fluorescence (HTRF) kinase assay; conditions: CDK2/CCNE
Outline: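 TR-FRET read-out (665 nm, or 665/615 ratio) of Eu-antibody detection of phospho-4E-BP1 (Thr37/46) ULight peptide. Enzyme 3 nM, ATP 1 mM, peptide 50 nM, 1% DMSO; 60 min reaction at 23 °C after 20 min compound preincubation. IC50 from 11-point half-log titrations, top typically 10 μM.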

CDK6/CCND1 = CDK6/CCND1 (Homo sapiens, UniProt Q00534); test: CDK6 homogeneous time-resolved fluorescence (HTRF) kinase assay; conditions: CDK6/CCND
Chain of CDK6/CCND1 (Q00534 whole entry): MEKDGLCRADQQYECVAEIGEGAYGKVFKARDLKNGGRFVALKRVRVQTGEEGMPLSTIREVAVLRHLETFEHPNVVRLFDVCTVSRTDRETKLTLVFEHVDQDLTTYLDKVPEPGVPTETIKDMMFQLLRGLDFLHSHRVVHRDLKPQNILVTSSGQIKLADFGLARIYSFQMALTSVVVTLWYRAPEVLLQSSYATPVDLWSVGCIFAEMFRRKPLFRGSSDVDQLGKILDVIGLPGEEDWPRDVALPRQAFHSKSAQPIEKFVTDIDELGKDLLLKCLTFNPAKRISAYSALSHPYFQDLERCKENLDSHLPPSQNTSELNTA
Chain of CDK6/CCND1 (P24385 whole entry partner): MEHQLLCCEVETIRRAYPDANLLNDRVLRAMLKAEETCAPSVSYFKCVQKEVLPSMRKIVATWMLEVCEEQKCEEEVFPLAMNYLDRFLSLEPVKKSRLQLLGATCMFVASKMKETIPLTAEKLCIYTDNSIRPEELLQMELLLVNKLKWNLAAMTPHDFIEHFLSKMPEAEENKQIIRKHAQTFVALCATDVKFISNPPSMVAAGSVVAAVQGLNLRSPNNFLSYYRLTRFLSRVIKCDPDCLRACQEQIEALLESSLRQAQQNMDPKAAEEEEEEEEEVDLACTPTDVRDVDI
Outline: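 Recombinant CDK6/CCND1 (1 nM final) was preincubated with compound for 20 min at 23 °C in HEPES buffer with MgCl2, EGTA, DTT and Tween 20. Kinase reaction then ran 60 min at 23 °C with 1 mM ATP and 50 nM ULight-4E-BP1 (Thr37/46) peptide, and was stopped with EDTA.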

[1] = x = IC50 >250 nM, read-out: CDK1/CCNB IC50 (>250 nM column)
[2] = x = IC50 >250 nM, read-out: CDK4/CCND IC50 (>250 nM column)
[3] = x = IC50 25-250 nM, read-out: CDK2/CCNE IC50 (25-250 nM)
[4] = x = IC50 >250 nM, read-out: CDK6/CCND IC50 (>250 nM column)
[5] = x = IC50 <25 nM, read-out: CDK2/CCNE IC50 (<25 nM)
[6] = x = IC50 25-250 nM, read-out: CDK1/CCNB IC50 (25-250 nM)
[7] = x = IC50 25-250 nM, read-out: CDK4/CCND IC50 (25-250 nM)
[8] = x = IC50 25-250 nM, read-out: CDK6/CCND IC50 (25-250 nM)
[9] = >250 nM, read-out: CDK1/CCNB IC50 >250 nM
[10] = >250 nM, read-out: CDK4/CCND IC50, >250 nM
[11] = 25-250 nM, read-out: CDK2/CCNE IC50, 25-250 nM
[12] = >250 nM, 1 mM ATP, read-out: CDK6/CCND IC50, >250 nM
[13] = <25 nM, read-out: CDK2/CCNE IC50, <25 nM

Chain of CDK1/CCNB1 (P06493 whole entry): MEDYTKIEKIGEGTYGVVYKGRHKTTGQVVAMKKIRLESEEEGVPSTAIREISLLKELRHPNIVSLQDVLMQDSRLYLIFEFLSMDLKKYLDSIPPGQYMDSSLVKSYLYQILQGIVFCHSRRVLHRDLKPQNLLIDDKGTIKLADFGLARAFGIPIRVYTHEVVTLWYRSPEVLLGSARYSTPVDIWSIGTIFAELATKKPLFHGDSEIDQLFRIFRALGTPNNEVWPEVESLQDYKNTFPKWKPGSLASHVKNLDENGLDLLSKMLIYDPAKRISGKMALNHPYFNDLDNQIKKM
Chain of CDK1/CCNB1 (P14635 whole entry partner): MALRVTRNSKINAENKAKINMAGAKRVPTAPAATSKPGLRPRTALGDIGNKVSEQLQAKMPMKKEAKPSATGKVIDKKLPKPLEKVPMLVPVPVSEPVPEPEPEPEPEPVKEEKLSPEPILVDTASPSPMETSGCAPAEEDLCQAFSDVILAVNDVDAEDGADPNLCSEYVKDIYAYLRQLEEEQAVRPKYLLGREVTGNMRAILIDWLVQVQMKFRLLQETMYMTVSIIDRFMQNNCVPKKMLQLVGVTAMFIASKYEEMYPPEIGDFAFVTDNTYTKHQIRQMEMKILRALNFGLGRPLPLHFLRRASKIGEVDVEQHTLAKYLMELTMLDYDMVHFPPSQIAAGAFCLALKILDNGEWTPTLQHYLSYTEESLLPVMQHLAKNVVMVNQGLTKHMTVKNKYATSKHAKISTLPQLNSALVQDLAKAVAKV

Structure (SMILES) | IC50 (CDK1/CCNB1; [1]) | IC50 (CDK4/CCND3; [2]) | IC50 (CDK2/CCNE1; [3]) | IC50 (CDK6/CCND1; [4]) | IC50 (CDK2/CCNE1; [5]) | IC50 (CDK1/CCNB1; [6]) | also measured
CS(=O)(=O)c1ccc(Nc2cc3c(C#Cc4ccc(C#N)c(F)c4F)nccc3cn2)cc1 [Ex 651, 2,3-difluoro-4-((7-((4-(methylsulfonyl)phenyl)amino)-2,6-naphthyridin-1-yl)ethynyl)benzonitrile] | > 250 nM | > 250 nM | 25 to 250 nM | > 250 nM | – | – | –
Cc1c(-c2nccc3cnc(Nc4ccc(S(C)(=O)=O)cc4)cc23)ccc2c1cnn2CC#N [Ex 656, 2-(4-methyl-5-(7-((4-(methylsulfonyl)phenyl)amino)-2,6-naphthyridin-1-yl)-1H-indazol-1-yl)acetonitrile] | > 250 nM | > 250 nM | 25 to 250 nM | > 250 nM | – | – | –
Cc1c(-c2nccc3cnc(Nc4ccc(S(C)(=O)=O)cc4)cc23)ccc2cn[nH]c12 [Ex 658, 5-(7-methyl-1H-indazol-6-yl)-N-(4-(methylsulfonyl)phenyl)-2,6-naphthyridin-3-amine] | – | – | – | – | < 25 nM | 25 to 250 nM | IC50 (CDK4/CCND3; [7]): 25 to 250 nM; IC50 (CDK6/CCND1; [8]): 25 to 250 nM
CS(=O)(=O)c1ccc(Nc2cc3c(C#Cc4ccc(=O)[nH]c4)nccc3cn2)cc1 [Ex 667, 5-((7-((4-(methylsulfonyl)phenyl)amino)-2,6-naphthyridin-1-yl)ethynyl)pyridin-2(1H)-one] | – | – | – | > 250 nM | < 25 nM | 25 to 250 nM | IC50 (CDK4/CCND3; [7]): 25 to 250 nM
Cc1c(-c2nccc3cnc(Nc4ccc(S(N)(=O)=O)cc4)cc23)ccc2c1cnn2CCO [Ex 673, 4-((5-(1-(2-hydroxyethyl)-4-methyl-1H-indazol-5-yl)-2,6-naphthyridin-3-yl)amino)benzenesulfonamide] | – | – | – | – | < 25 nM | 25 to 250 nM | IC50 (CDK4/CCND3; x = IC50 <25 nM, read-out: CDK4/CCND IC50 (<25 nM)): < 25 nM; IC50 (CDK6/CCND1; x = IC50 <25 nM, read-out: CDK6/CCND IC50 (<25 nM)): < 25 nM
Cc1c(-c2nccc3cnc(Nc4ccc(S(C)(=O)=O)cc4)cc23)ccc2c1cnn2CC(N)=O [Ex 676, 2-(4-methyl-5-(7-((4-(methylsulfonyl)phenyl)amino)-2,6-naphthyridin-1-yl)-1H-indazol-1-yl)acetamide] | – | – | – | – | < 25 nM | 25 to 250 nM | IC50 (CDK4/CCND3; [7]): 25 to 250 nM; IC50 (CDK6/CCND1; [8]): 25 to 250 nM
Cc1c(-c2nccc3cnc(Nc4ccc(S(=O)(=O)NCC(F)(F)F)cc4)cc23)ccc2c1cnn2CC(O)(C(F)(F)F)C(F)(F)F [Ex 684, 4-((5-(4-methyl-1-(3,3,3-trifluoro-2-hydroxy-2-(trifluoromethyl)propyl)-1H-indazol-5-yl)-2,6-naphthyridin-3-yl)amino)-N-(2,2,2-trifluoroethyl)benzenesulfonamide] | – | – | – | – | – | – | IC50 (CDK1/CCNB1; [9]): > 250 nM; IC50 (CDK4/CCND3; [10]): > 250 nM; IC50 (CDK2/CCNE1; [11]): 25 to 250 nM; IC50 (CDK6/CCND1; [12]): > 250 nM
Cc1ccc(NS(=O)(=O)c2ccc(Nc3cc4c(-c5ccc6c(cnn6CC(O)(C(F)(F)F)C(F)(F)F)c5C)nccc4cn3)cc2)nc1N1CCOCC1 [Ex 694, 4-((5-(4-methyl-1-(3,3,3-trifluoro-2-hydroxy-2-(trifluoromethyl)propyl)-1H-indazol-5-yl)-2,6-naphthyridin-3-yl)amino)-N-(5-methyl-6-morpholinopyridin-2-yl)benzenesulfonamide] | – | – | – | – | – | – | IC50 (CDK1/CCNB1; [9]): > 250 nM; IC50 (CDK4/CCND3; [10]): > 250 nM; IC50 (CDK2/CCNE1; [11]): 25 to 250 nM; IC50 (CDK6/CCND1; [12]): > 250 nM
CCNS(=O)(=O)c1ccc(Nc2cc3c(-c4ccc5c(cnn5CC(O)(C(F)(F)F)C(F)(F)F)c4C)nccc3cn2)cc1 [Ex 695, N-ethyl-4-((5-(4-methyl-1-(3,3,3-trifluoro-2-hydroxy-2-(trifluoromethyl)propyl)-1H-indazol-5-yl)-2,6-naphthyridin-3-yl)amino)benzenesulfonamide] | – | – | – | – | – | – | IC50 (CDK1/CCNB1; [9]): > 250 nM; IC50 (CDK4/CCND3; [10]): > 250 nM; IC50 (CDK2/CCNE1; [13]): < 25 nM; IC50 (CDK6/CCND1; [12]): > 250 nM
COc1ccc(NS(=O)(=O)c2ccc(Nc3cc4c(-c5ccc6c(cnn6CC(O)(C(F)(F)F)C(F)(F)F)c5C)nccc4cn3)cc2)nc1N1CCOCC1 [Ex 697, N-(5-methoxy-6-morpholinopyridin-2-yl)-4-((5-(4-methyl-1-(3,3,3-trifluoro-2-hydroxy-2-(trifluoromethyl)propyl)-1H-indazol-5-yl)-2,6-naphthyridin-3-yl)amino)benzenesulfonamide] | – | – | – | – | – | – | IC50 (CDK1/CCNB1; [9]): > 250 nM; IC50 (CDK4/CCND3; [10]): > 250 nM; IC50 (CDK2/CCNE1; [11]): 25 to 250 nM; IC50 (CDK6/CCND1; [12]): > 250 nM
Cc1cnc(NS(=O)(=O)c2ccc(Nc3cc4c(-c5ccc6c(cnn6CC(O)(C(F)(F)F)C(F)(F)F)c5C)nccc4cn3)cc2)cc1N1CCOCC1 [Ex 701, 4-((5-(4-methyl-1-(3,3,3-trifluoro-2-hydroxy-2-(trifluoromethyl)propyl)-1H-indazol-5-yl)-2,6-naphthyridin-3-yl)amino)-N-(5-methyl-4-morpholinopyridin-2-yl)benzenesulfonamide] | – | – | – | – | – | – | IC50 (CDK1/CCNB1; [9]): > 250 nM; IC50 (CDK4/CCND3; [10]): > 250 nM; IC50 (CDK2/CCNE1; [13]): < 25 nM; IC50 (CDK6/CCND1; [12]): > 250 nM

Second part, led by results:

IC50 (CDK1/CCNB1; [1]) | IC50 (CDK4/CCND3; [2]) | IC50 (CDK2/CCNE1; [3]) | IC50 (CDK6/CCND1; [4]) | IC50 (CDK2/CCNE1; [5]) | IC50 (CDK1/CCNB1; [6]) | Structure (SMILES) | also measured
> 250 nM | > 250 nM | – | > 250 nM | < 25 nM | – | CS(=O)(=O)c1ccc(Nc2cc3c(C#Cc4ccc(CCO)cc4)nccc3cn2)cc1 [Ex 652, 2-(4-((7-((4-(methylsulfonyl)phenyl)amino)-2,6-naphthyridin-1-yl)ethynyl)phenyl)ethan-1-ol] | –
> 250 nM | > 250 nM | 25 to 250 nM | > 250 nM | – | – | COC(=O)N1CCC(C#Cc2nccc3cnc(Nc4ccc(S(C)(=O)=O)cc4)cc23)CC1 [Ex 653, methyl 4-((7-((4-(methylsulfonyl)phenyl)amino)-2,6-naphthyridin-1-yl)ethynyl)piperidine-1-carboxylate] | –
> 250 nM | > 250 nM | – | > 250 nM | < 25 nM | – | Cn1cc2c(Cl)c(-c3nccc4cnc(Nc5ccc(S(C)(=O)=O)cc5)cc34)ccc2n1 [Ex 655, 5-(4-chloro-2-methyl-2H-indazol-5-yl)-N-(4-(methylsulfonyl)phenyl)-2,6-naphthyridin-3-amine] | –
– | – | – | – | < 25 nM | 25 to 250 nM | Cc1c(-c2nccc3cnc(Nc4ccc(S(C)(=O)=O)cc4)cc23)ccc2c1ccn2CCO [Ex 657, 2-(4-methyl-5-(7-((4-(methylsulfonyl)phenyl)amino)-2,6-naphthyridin-1-yl)-1H-indol-1-yl)ethan-1-ol] | IC50 (CDK4/CCND3; [7]): 25 to 250 nM; IC50 (CDK6/CCND1; [8]): 25 to 250 nM
> 250 nM | > 250 nM | 25 to 250 nM | > 250 nM | – | – | COc1cc(C#Cc2nccc3cnc(Nc4ccc(S(C)(=O)=O)cc4)cc23)ccn1 [Ex 660, 5-((2-methoxypyridin-4-yl)ethynyl)-N-(4-(methylsulfonyl)phenyl)-2,6-naphthyridin-3-amine] | –
– | – | – | – | < 25 nM | 25 to 250 nM | Cc1c(-c2nccc3cnc(Nc4ccc(S(=O)(=O)C5CC5)cc4)cc23)ccc2c1cnn2CCO [Ex 662, 2-(5-(7-((4-(cyclopropylsulfonyl)phenyl)amino)-2,6-naphthyridin-1-yl)-4-methyl-1H-indazol-1-yl)ethan-1-ol] | IC50 (CDK4/CCND3; [7]): 25 to 250 nM; IC50 (CDK6/CCND1; [8]): 25 to 250 nM
> 250 nM | > 250 nM | – | > 250 nM | < 25 nM | – | CS(=O)(=O)c1ccc(Nc2cc3c(C#Cc4cn[nH]c4)nccc3cn2)cc1 [Ex 664, 5-((1H-pyrazol-4-yl)ethynyl)-N-(4-(methylsulfonyl)phenyl)-2,6-naphthyridin-3-amine] | –
> 250 nM | > 250 nM | 25 to 250 nM | > 250 nM | – | – | N#Cc1ccc(C#Cc2nccc3cnc(Nc4ccc(S(=O)(=O)CCO)cc4)cc23)cc1 [Ex 665, 4-((7-((4-((2-hydroxyethyl)sulfonyl)phenyl)amino)-2,6-naphthyridin-1-yl)ethynyl)benzonitrile] | –
> 250 nM | > 250 nM | 25 to 250 nM | > 250 nM | – | – | CS(=O)(=O)c1ccc(Nc2cc3c(C#Cc4ccc(C#N)nc4)nccc3cn2)cc1 [Ex 669, 5-((7-((4-(methylsulfonyl)phenyl)amino)-2,6-naphthyridin-1-yl)ethynyl)picolinonitrile] | –
